Assay results taken from patent US8367695B2, “Condensed tetrahydroquinoline derivative and use thereof for medical purposes” (Mitsubishi Tanabe Pharma Corporation, priority 2007, dated 2013).

Target: T1, human recombinant glucocorticoids receptor (GR) (Homo sapiens, UniProt P04150)
T1 sequence (P04150 1-777): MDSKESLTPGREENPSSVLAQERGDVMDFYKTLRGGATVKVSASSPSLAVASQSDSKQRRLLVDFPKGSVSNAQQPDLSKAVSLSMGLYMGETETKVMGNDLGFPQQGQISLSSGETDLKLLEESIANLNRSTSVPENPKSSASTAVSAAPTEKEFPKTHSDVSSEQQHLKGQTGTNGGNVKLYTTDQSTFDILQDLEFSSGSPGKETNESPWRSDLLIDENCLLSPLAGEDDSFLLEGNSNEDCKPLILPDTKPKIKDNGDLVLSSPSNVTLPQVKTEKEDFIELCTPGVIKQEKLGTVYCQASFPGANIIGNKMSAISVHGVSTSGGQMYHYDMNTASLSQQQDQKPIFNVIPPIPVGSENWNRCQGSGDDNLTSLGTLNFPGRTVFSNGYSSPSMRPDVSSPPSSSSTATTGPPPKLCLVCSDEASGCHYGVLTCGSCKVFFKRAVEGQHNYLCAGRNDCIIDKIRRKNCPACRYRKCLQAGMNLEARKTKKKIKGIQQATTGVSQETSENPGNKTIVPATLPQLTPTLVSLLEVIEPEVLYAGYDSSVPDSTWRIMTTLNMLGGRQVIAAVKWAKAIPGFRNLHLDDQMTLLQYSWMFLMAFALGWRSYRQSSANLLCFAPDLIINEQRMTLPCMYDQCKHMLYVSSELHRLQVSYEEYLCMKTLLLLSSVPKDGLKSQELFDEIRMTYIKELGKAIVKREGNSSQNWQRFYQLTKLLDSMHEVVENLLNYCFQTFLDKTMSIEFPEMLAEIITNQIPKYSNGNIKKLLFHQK
Test: Radioactive ligand binding test, GR cytosol, [3H]-Dex
Settings: [3H]-Dex about 5 nM, GR cytosol, 4° C.; Cheng-Prusoff, Kd about 3.1 nM; read-out: GR (Ki: nM)
Procedure: Radioactive Ligand Binding Test Using Cytosols of Human Glucocorticoids Receptor, Progesterone Receptor and Mineralocorticoid Receptor
Opthalmol. Vis. […] In brief, cytosol preparations of human recombinant glucocorticoids receptor (GR) and human recombinant progesterone receptor-B (PRB) were purchased from Invitrogen (Carlsbad, Calif.), and a cytosol preparation of human recombinant mineralocorticoid receptor (MR) was prepared by our company (Yokohama, JP). MR cDNA was cloned into a baculovirus expression vector and expressed in insect cell Sf9. […] [^3H]-Dexamethasone (Dex, specific activity 91.0 Ci/mmol) was purchased from GE Healthcare (Buckinghamshire, UK), and [^3H]-progesterone (Prog, specific activity 103 Ci/mmol) and [3H]-aldosterone (Ald, specific activity 87.9 Ci/mmol) were each purchased from PerkinElmer (Boston, Mass.). Polypropylene round-bottomed 96 well plate was obtained from ABgene (Epsom, UK). Dimethyl Sulfoxide (DMSO) and hydrochloric acid were obtained from Kanto Chemical (TOKYO, JP). Trizma Base (Tris), Bovine Serum Albumin (BSA) and Sodium tungstate dihydrate were obtained from Sigma Chemicals (St. Louis, Mo.). Dithiothreitol (DTT) and Dextran 70 were obtained from GE Healthcare (Buckinghamshire, UK). Glycerol was obtained from Junsei Chemical (TOKYO, JP). Norit® “SX-II” was obtained from Wako Pure Chemical Industries, Ltd. (Osaka, JP). MeltiLex™, A, Printed Filtermat A and Sample Bag were obtained from PerkinElmer (Boston, Mass.).
As a buffer for GR binding assay, 25 mM Tris-HCl (4° C., pH 7.4)/1 mM EDTA·2Na/1 mM DTT/0.1% BSA was prepared and used. As buffers for PRB and MR binding assay, 10 mM Tris-HCl (4° C., pH 7.4)/1 mM DTT/0.1% BSA/10% glycerol and 20 mM Tris-HCl (4° C., pH 7.4)/1 mM EDTA·2Na/10% glycerol/20 mM sodium tungstate were respectively prepared and used.
Compound storage solutions (5-20 mM) were prepared using DMSO. The storage solutions were diluted with DMSO to 0.1 mM (for GR) and 0.3 mM (for PRB and MR), and further diluted 20-fold with distilled water to give solutions. Then, the preparations were diluted to each concentration with 5% DMSO solution. 1% DMSO was present at the time of the binding assay.
GR, PRB and MR binding reactions were performed in 96 well plate (ABgene). In the case of GR binding assay, [^3H]-Dex (about 5 nM), GR cytosol (concentration of function receptor: about 4 pmol/mL), a test compound and a binding buffer were mixed in a total volume of 50 μL, and the mixture was stood at 4° C. for 30 min or longer. A specific binding was defined to be the difference in the [^3H]-Dex binding between the presence and the absence of 1 μM unlabeled Dex.
After the reaction, 50 μL of DCC was added to each well and blended. Thereafter, the mixture was stood at 4° C. for 10 min. The plate was applied to high-speed cooling centrifuge under the conditions of 4° C., 2000 rpm, 5 min to perform B/F separation. A given amount of the supernatant was recovered, which was spotted on Filtermat A of 96 well format (PerkinElmer) and rapidly dried at a high temperature.
Measurement of Inhibition Constant (Ki)
Ki of the test compound was determined by the following Cheng-Prusoff equation: Ki=IC50/(1+[L*]/Kd) • wherein L* is a concentration of radioactive ligand and Kd is a dissociation constant for radioactive ligand determined by saturation analysis.

Row | Ki [nM] | Structure (SMILES)
1 | 35 | CC1(C)Nc2c(cc(-c3cccc4ncccc34)c3occc23)C(C)(C)C1=O [Example 101, 2,2,4,4-tetramethyl-6-(quinolin-5-yl)-1,2,3,4-tetrahydro-furo [2,3-h]quinolin-3-one]
2 | 66 | CC1(C)Nc2c(cc(-c3ccnc4ncccc34)c3occc23)C(C)(C)C1=O [Example 102, 2,2,4,4-tetramethyl-6-([1,8]naphthyridin-4-yl)-1,2,3,4-tetrahydro-furo[2,3-h]quinolin-3-one]
3 | 60 | Cc1noc(C)c1-c1cc2c(c3c1C(=O)CC3)NC(C)(C)C(=O)C2(C)C [Example 104, 6-(3,5-dimethylisoxazol-4-yl)-2,2,4,4-tetramethyl-2,3,4,7,8,9-hexahydro-1H-cyclopenta[h]quinoline-3,7-dione]
